Source: ChEMBL document CHEMBL2150993, “Substituted thiazoles VII. Synthesis and antitumor activity of certain 2-(substituted amino)-4-phenyl-1,3-thiazole analogs” (2012)

Legend:
Type in all cases: functional
Details in all cases: at 10 µM
U-251 = test: Growth inhibition of human U251 cells after 48 hrs by cell counting analysis
SR = test: Growth inhibition of human SR cells after 48 hrs by cell counting analysis
SK-MEL-2 = test: Growth inhibition of human SK-MEL-2 cells after 48 hrs by cell counting analysis
PC-3 = test: Growth inhibition of human PC3 cells after 48 hrs by cell counting analysis
HOP-92 = test: Growth inhibition of human HOP92 cells after 48 hrs by cell counting analysis
CAKI-1 = test: Growth inhibition of human Caki1 cells after 48 hrs by cell counting analysis
BT-549 = test: Growth inhibition of human BT549 cells after 48 hrs by cell counting analysis
SNB-19 = test: Growth inhibition of human SNB19 cells after 48 hrs by cell counting analysis
K562 = test: Growth inhibition of human K562 cells after 48 hrs by cell counting analysis
OVCAR-8 = test: Growth inhibition of human OVCAR8 cells after 48 hrs by cell counting analysis
[1] = Growth inhibition of human NCI-322M cells after 48 hrs by cell counting analysis
A549 = test: Growth inhibition of human A549 cells after 48 hrs by cell counting analysis
HCT-15 = test: Growth inhibition of human HCT15 cells after 48 hrs by cell counting analysis
SN12C = test: Growth inhibition of human SN12C cells after 48 hrs by cell counting analysis
MDA-MB-468 = test: Growth inhibition of human MDA-MB-468 cells after 48 hrs by cell counting analysis
HT-29 = test: Growth inhibition of human HT-29 cells after 48 hrs by cell counting analysis
LOX IMVI = test: Growth inhibition of human LOXIMVI cells after 48 hrs by cell counting analysis
UACC-257 = test: Growth inhibition of human UACC257 cells after 48 hrs by cell counting analysis
HOP-62 = test: Growth inhibition of human HOP62 cells after 48 hrs by cell counting analysis
HCC 2998 = test: Growth inhibition of human HCC2998 cells after 48 hrs by cell counting analysis
OVCAR-5 = test: Growth inhibition of human OVCAR5 cells after 48 hrs by cell counting analysis
SF-295 = test: Growth inhibition of human SF295 cells after 48 hrs by cell counting analysis
SNB-75 = test: Growth inhibition of human SNB75 cells after 48 hrs by cell counting analysis
ACHN = test: Growth inhibition of human ACHN cells after 48 hrs by cell counting analysis
MDA-MB-231 = test: Growth inhibition of human MDA-MB-231 cells after 48 hrs by cell counting analysis
SK-MEL-5 = test: Growth inhibition of human SK-MEL-5 cells after 48 hrs by cell counting analysis
HL-60 = test: Growth inhibition of human HL60 cells after 48 hrs by cell counting analysis
UACC-62 = test: Growth inhibition of human UACC62 cells after 48 hrs by cell counting analysis
RPMI-8226 = test: Growth inhibition of human RPMI8226 cells after 48 hrs by cell counting analysis
M14 = test: Growth inhibition of human M14 cells after 48 hrs by cell counting analysis
RXF 393 = test: Growth inhibition of human RXF393 cells after 48 hrs by cell counting analysis
Malme-3M = test: Growth inhibition of human MALME-3M cells after 48 hrs by cell counting analysis
UO-31 = test: Growth inhibition of human UO31 cells after 48 hrs by cell counting analysis
SK-MEL-28 = test: Growth inhibition of human SK-MEL-28 cells after 48 hrs by cell counting analysis
NCI-H23 = test: Growth inhibition of human NCI-H23 cells after 48 hrs by cell counting analysis
NCI-H522 = test: Growth inhibition of human NCI-H522 cells after 48 hrs by cell counting analysis
EKVX = test: Growth inhibition of human EKVX cells after 48 hrs by cell counting analysis
MDA-MB-435 = test: Growth inhibition of human MDA-MB-435 cells after 48 hrs by cell counting analysis
SF-539 = test: Growth inhibition of human SF539 cells after 48 hrs by cell counting analysis
HCT-116 = test: Growth inhibition of human HCT116 cells after 48 hrs by cell counting analysis
SF-268 = test: Growth inhibition of human SF268 cells after 48 hrs by cell counting analysis
SK-OV-3 = test: Growth inhibition of human SKOV3 cells after 48 hrs by cell counting analysis
OVCAR-3 = test: Growth inhibition of human OVCAR3 cells after 48 hrs by cell counting analysis
T47D = test: Growth inhibition of human T47D cells after 48 hrs by cell counting analysis
MCF7 = test: Growth inhibition of human MCF7 cells after 48 hrs by cell counting analysis
IGROV-1 = test: Growth inhibition of human IGROV1 cells after 48 hrs by cell counting analysis
MOLT-4 = test: Growth inhibition of human MOLT4 cells after 48 hrs by cell counting analysis
TK-10 = test: Growth inhibition of human TK10 cells after 48 hrs by cell counting analysis
CCRF-CEM = test: Growth inhibition of human CCRF-CEM cells after 48 hrs by cell counting analysis
[2] = Growth inhibition of human NCI-ADR-RES cells after 48 hrs by cell counting analysis
SW-620 = test: Growth inhibition of human SW620 cells after 48 hrs by cell counting analysis
KM12 = test: Growth inhibition of human KM12 cells after 48 hrs by cell counting analysis
OVCAR-4 = test: Growth inhibition of human OVCAR4 cells after 48 hrs by cell counting analysis
NCI-H226 = test: Growth inhibition of human NCI-H226 cells after 48 hrs by cell counting analysis

CN1CCN(CCC(=O)Nc2nc(-c3ccc(Cl)cc3)cs2)CC1
growth inhibition (GI) (U-251): 16.5% | growth inhibition (GI) (SR): <10% | growth inhibition (GI) (SK-MEL-2): <10% | growth inhibition (GI) (PC-3): 15.3% | growth inhibition (GI) (HOP-92): 42.2% | growth inhibition (GI) (CAKI-1): 24.2% | growth inhibition (GI) (BT-549): 29.1% | growth inhibition (GI) (SNB-19): 19.7% | growth inhibition (GI) (K562): 22.4% | growth inhibition (GI) (OVCAR-8): 15.6% | growth inhibition (GI) [1]: <10% | growth inhibition (GI) (A549): <10% | growth inhibition (GI) (HCT-15): 18.1% | growth inhibition (GI) (SN12C): 32.9% | growth inhibition (GI) (MDA-MB-468): 62.8% | growth inhibition (GI) (HT-29): 23.8% | growth inhibition (GI) (LOX IMVI): 12.8% | growth inhibition (GI) (UACC-257): <10% | growth inhibition (GI) (HOP-62): 19.7% | growth inhibition (GI) (HCC 2998): 13.3% | growth inhibition (GI) (OVCAR-5): <10% | growth inhibition (GI) (SF-295): <10% | growth inhibition (GI) (SNB-75): 26.8% | growth inhibition (GI) (ACHN): <10% | growth inhibition (GI) (MDA-MB-231): 25.6% | growth inhibition (GI) (SK-MEL-5): 46.1% | growth inhibition (GI) (HL-60): 20.6% | growth inhibition (GI) (UACC-62): 15% | growth inhibition (GI) (RPMI-8226): 17.6% | growth inhibition (GI) (M14): 15.2% | growth inhibition (GI) (RXF 393): 47.4% | growth inhibition (GI) (Malme-3M): 15.4% | growth inhibition (GI) (UO-31): 48.6% | growth inhibition (GI) (SK-MEL-28): <10% | growth inhibition (GI) (NCI-H23): 11.2% | growth inhibition (GI) (NCI-H522): 31.1% | growth inhibition (GI) (EKVX): 11.9% | growth inhibition (GI) (MDA-MB-435): 15.4% | growth inhibition (GI) (SF-539): 14.8% | growth inhibition (GI) (HCT-116): 13.3% | growth inhibition (GI) (SF-268): 14.2% | growth inhibition (GI) (SK-OV-3): <10% | growth inhibition (GI) (OVCAR-3): <10% | growth inhibition (GI) (T47D): 28.8% | growth inhibition (GI) (MCF7): 28% | growth inhibition (GI) (IGROV-1): 18.4% | growth inhibition (GI) (MOLT-4): 51.8% | growth inhibition (GI) (TK-10): 20.2% | growth inhibition (GI) (CCRF-CEM): 18.3% | growth inhibition (GI) [2]: 21.9% | growth inhibition (GI) (SW-620): <10% | growth inhibition (GI) (KM12): <10% | growth inhibition (GI) (OVCAR-4): <10% | growth inhibition (GI) (NCI-H226): 28%

CN1CCN(CCC(=O)Nc2nc(-c3ccc(Br)cc3)cs2)CC1
growth inhibition (GI) (U-251): 33.6% | growth inhibition (GI) (SR): <10% | growth inhibition (GI) (SK-MEL-2): <10% | growth inhibition (GI) (PC-3): 24.6% | growth inhibition (GI) (HOP-92): 42.7% | growth inhibition (GI) (CAKI-1): 30.2% | growth inhibition (GI) (BT-549): 32.5% | growth inhibition (GI) (SNB-19): 20.9% | growth inhibition (GI) (K562): 52.4% | growth inhibition (GI) (OVCAR-8): <10% | growth inhibition (GI) [1]: 17.2% | growth inhibition (GI) (A549): 22.2% | growth inhibition (GI) (HCT-15): 42.6% | growth inhibition (GI) (SN12C): 31.9% | growth inhibition (GI) (MDA-MB-468): 48.7% | growth inhibition (GI) (HT-29): 80.4% | growth inhibition (GI) (LOX IMVI): 31.8% | growth inhibition (GI) (UACC-257): 36.4% | growth inhibition (GI) (HOP-62): 25% | growth inhibition (GI) (HCC 2998): <10% | growth inhibition (GI) (OVCAR-5): 15.6% | growth inhibition (GI) (SF-295): 14.4% | growth inhibition (GI) (SNB-75): 47.9% | growth inhibition (GI) (ACHN): 15.9% | growth inhibition (GI) (MDA-MB-231): 64.3% | growth inhibition (GI) (SK-MEL-5): 76.2% | growth inhibition (GI) (HL-60): 37.7% | growth inhibition (GI) (UACC-62): 71.6% | growth inhibition (GI) (RPMI-8226): 30.5% | growth inhibition (GI) (M14): 33.7% | growth inhibition (GI) (RXF 393): 38.1% | growth inhibition (GI) (Malme-3M): 24.6% | growth inhibition (GI) (UO-31): 50.8% | growth inhibition (GI) (SK-MEL-28): 23.4% | growth inhibition (GI) (NCI-H23): 26% | growth inhibition (GI) (NCI-H522): 28.5% | growth inhibition (GI) (EKVX): 10.8% | growth inhibition (GI) (MDA-MB-435): 50.6% | growth inhibition (GI) (SF-539): 31.4% | growth inhibition (GI) (HCT-116): 42.5% | growth inhibition (GI) (SF-268): 12.8% | growth inhibition (GI) (SK-OV-3): <10% | growth inhibition (GI) (OVCAR-3): <10% | growth inhibition (GI) (T47D): 34.9% | growth inhibition (GI) (MCF7): 28.8% | growth inhibition (GI) (IGROV-1): 20.4% | growth inhibition (GI) (MOLT-4): 38.1% | growth inhibition (GI) (TK-10): 22.5% | growth inhibition (GI) (CCRF-CEM): 24.9% | growth inhibition (GI) [2]: 22.9% | growth inhibition (GI) (SW-620): <10% | growth inhibition (GI) (KM12): <10% | growth inhibition (GI) (OVCAR-4): <10% | growth inhibition (GI) (NCI-H226): 19.1%
